Values quoted from earlier work as cited in PMC5266543 (ACS infectious diseases, 2016).

Tested on: M. tuberculosis H37Rv
Conditions: cited from earlier work

In the case of `CC(=O)N(O)CCCP(=O)(O)O` [Compound 2, FR900098], the “MIC against Mtb” value is listed as “essentially inactive”.
